In PMC6522510 (Nature Communications, 2019):

Experiments:
Set-up in all cases: species or system AML cell lines (8); Primary HTS, single concentration about 10 uM, Cell Titer Glo viability; log10 luminescence, per cent inhibition relative to cycloheximide control
Conditions in all cases: 72 h, relative to cycloheximide control, log10 luminescence; inhibitor
U937 = tested on: U937
CHRF288-11 = tested on: CHRF288-11
CMS = tested on: CMS
CMK = tested on: CMK
MV4-11 = tested on: MV4-11
M07e = tested on: M07e
ML-2 = tested on: ML-2
MOLM-13 = tested on: MOLM-13

Structure (SMILES) | U937 %inh (U937) | CHRF288-11 %inh (CHRF288-11) | CMS %inh (CMS) | CMK %inh (CMK) | MV4-11 %inh (MV4-11) | M07e %inh (M07e) | ML-2 %inh (ML-2) | MOLM-13 %inh (MOLM-13)
Cn1c(=O)c(Oc2ccc(F)cc2F)cc2cnc(N[C@H]3CCOC3)nc21 [SJ000581121-1] | 1.362% | -0.8909% | 4.412% | 3.547% | 2.632% | 5.749% | 0.08921% | 1.492%
Nc1c(C(=O)c2ccccc2)cnn1-c1ccc(F)cc1 [SJ000581122-1] | -0.682% | -5.198% | -0.3703% | 1.79% | -1.368% | 10.33% | 1.652% | 2.618%
N#Cc1cccc(C(=O)c2cnn(-c3ccc(F)cc3)c2N)c1 [SJ000581124-1] | 2.317% | -6.686% | 0.5963% | 1.804% | -1.446% | 5.547% | 1.377% | 0.9707%
Cn1cc(C2=C(c3cn(CCN)c4ccccc34)C(=O)NC2=O)c2ccccc21 [SJ000581125-1] | -0.6181% | -0.3568% | 4.695% | 4.026% | 10.77% | 2.044% | 0.3075% | 2.432%
CC(=O)N[C@@H](Cc1ccc(OP(=O)(O)O)cc1)C(=O)N[C@H]1CCC(=O)N2CCC[C@@H](C(=O)NCc3cccc4ccccc34)N2C1=O [SJ000581126-1] | 1.351% | 5.32% | 3.071% | 0.6517% | 0.5498% | 3.709% | -1.495% | 1.087%
O=C1NC(=NCCCc2ccccc2)S/C1=C\c1ccc2ncccc2c1 [SJ000581127-1] | 2.066% | -2.357% | 4.391% | 8.234% | 18.37% | 6.993% | 2.496% | 42.49%
COc1cc[nH]c1/C=C1\C(=O)Nc2ccc([N+](=O)[O-])c(N3CC[C@@H](O)C3)c21 [SJ000581128-1] | 87.66% | 53.94% | 95.24% | 98.31% | 84.07% | 106% | 60.5% | 123.9%
O=C1NC(=NCCc2cccc(F)c2)S/C1=C\c1ccc2ncccc2c1 [SJ000581129-1] | 84.57% | 23.25% | 28.27% | 94.55% | 43.95% | 27.94% | 47.36% | 21.32%
OCCn1c(-c2ccncc2)c(-c2ccc(F)cc2)c2ncccc21 [SJ000581130-1] | 1.305% | 7.224% | 3.754% | 5.975% | 4.176% | 6.21% | -0.1929% | 0.6818%
N#Cc1c(C(=O)c2ccccc2)cnn1-c1ccccc1 [SJ000581131-1] | -0.2486% | 0.7045% | 1.498% | -0.4032% | 2.305% | 8.327% | 0.5024% | 1.329%
Nc1c(C(=O)c2ccc(-c3cccnc3)cc2)cnn1-c1ccc(F)cc1 [SJ000581132-1] | -1.133% | 1.549% | 7.229% | -0.6442% | 2.713% | 5.04% | -1.014% | 0.5666%
CN1C[C@@H]2Cn3c(c(C4=C(c5cn(C)c6ccccc56)C(=O)NC4=O)c4ccccc43)C[C@H]2C1 [SJ000581133-2] | 4.609% | 9.973% | -1.372% | 11.96% | 12.86% | 4.251% | 1.581% | 14.65%
O=C1NC(=NCc2ccccc2Cl)S/C1=C\c1ccc2ncccc2c1 [SJ000581134-1] | 2.507% | -1.242% | 2.499% | -0.8248% | 3.2% | 4.671% | 1.267% | 0.6384%
O=C1NC(=N[C@@H]2C[C@H]2c2ccccc2)S/C1=C\c1ccc2ncccc2c1 [SJ000581135-1] | 9.436% | 1.296% | -0.3906% | -0.2461% | 2.985% | 3.343% | 0.9867% | 1.012%
Cn1cc(C2=C(c3cccc4ccccc34)C(=O)NC2=O)c2ccccc21 [SJ000581136-1] | 2.302% | 6.432% | 3.922% | 2.941% | 3.742% | 1.122% | -1.062% | -0.09214%
Cn1cc(C2=C(c3cccc([N+](=O)[O-])c3)C(=O)NC2=O)c2ccccc21 [SJ000581137-1] | -0.4034% | 36.65% | 50.99% | 90.94% | 20.06% | 11.35% | 13.53% | 11.77%
Cn1c(=O)c(Oc2ccc(F)cc2F)cc2cnc(NCC(C)(C)O)nc21 [SJ000581138-1] | 1.09% | 7.837% | 0.7178% | 2.21% | 3.026% | 5.81% | -0.3186% | 1.398%
CC(=O)N[C@@H](Cc1ccc(OP(=O)(O)O)cc1)C(=O)N[C@H]1CCC(=O)N2CCC[C@@H](C(=O)NCc3ccc(O)cc3)N2C1=O [SJ000581139-1] | -0.05209% | -2.024% | 2.649% | 0.1299% | 1.337% | 2.301% | -0.8925% | 2.506%
COc1ccccc1CN=C1NC(=O)/C(=C/c2ccc3ncccc3c2)S1 [SJ000581141-1] | 8.458% | -2.393% | 6.446% | 34.72% | 3.855% | 13.46% | 2.098% | 11.11%
COc1ccccc1C(=O)c1cnc(NC2CCN(S(C)(=O)=O)CC2)nc1N [SJ000581142-1] | 8.409% | 2.52% | 7.4% | 37.79% | 2.743% | 6.858% | 3.568% | 12.27%
CN[C@H](C#Cc1c(F)ccc2c1/C(=C/c1[nH]ccc1OC)C(=O)N2)CO [SJ000581143-1] | 84.86% | 59.49% | 103.6% | 110.7% | 81.33% | 77.31% | 61.18% | 108.7%
COc1cccc(C2=C(c3c(C)n(C)c4ccccc34)C(=O)NC2=O)c1 [SJ000581144-1] | 1.12% | 0.2394% | -0.561% | 1.238% | 0.7267% | 8.342% | -0.7501% | 3.467%
CC(C)Nc1ncc2cc(Oc3ccc(F)cc3F)c(=O)n(C)c2n1 [SJ000581145-1] | 2.438% | -0.5311% | 3.456% | 7.64% | 3.959% | 6.769% | 0.005285% | 2.517%
COc1cccc(C2=C(c3cn(C)c4ccc(Cl)cc34)C(=O)NC2=O)c1 [SJ000581146-1] | 1.209% | -4.42% | 4.874% | -1.255% | 2.685% | 8.183% | -1.297% | 1.622%
